Experimental data: patent US10766873B2, “Zuclopenthixol hydrochloride derivatives and Ebselen derivatives as ErbB2 inhibitors” (Centre National de la Recherche Scientifique (CNRS), priority 2016, dated 2020)

How the values were obtained:
V777L ErbB2 = biological target: T1, V777L ErbB2 (Homo sapiens, UniProt P04626, V777L); assay: Western blot pY1248, V777L ErbB2 in transfected HBMECs; assay type: cell-based; conditions: 0, 5, 10 or 20 μM, 48 h
T1 construct: expressed in transfected cells; host or cells: HBMEC
Protocol: (§1) HBMECs cells were transfected with plasmids encoding WT, V777L or V842I and treated with 0, 5, 10 or 20 μM ZU or EB1 for 48 h. ErbB2 activation was then analyzed by western blot analysis using a phospho-ErbB2-specific antibody (pY1248) and a total ErbB2 antibody. Histograms show optical density quantification.

[1] = biological target: T2, FERM/ErbB2 interaction (Ezrin FERM domain / juxtamembrane ErbB2 peptide) (Homo sapiens, UniProt P04626); assay: AlphaScreen competition assay, FERM/ErbB2 interaction; assay type: binding; conditions: 1 h
T2 construct: made in house
Description: To validate that the Zuclopenthixol hydrochloride (ZU) and its derivatives interact with the juxtamembrane domain of ErbB2, we first analyzed in AlphaScreen® their efficiency to inhibit FERM/ErbB2 interaction in a dose-dependent manner and determined IC50 value. Furthermore, to test the selectivity of those compounds, we tested their ability to disrupt the interaction between the FERM domain and the known ERM binding motif contained in the juxtamembrane region of CD44 as a control.
AlphaScreen® technology was used to assess the interaction between the Ezrin binding motif (EBM) contained in the juxtamembrane portions of ErbB2 or CD44 with the Ezrin FERM domain. For this purpose the Ezrin FERM domain in fusion with Glutathione-S-Transferase (GST) has been coupled to GSH-coated acceptor beads. […] The AlphaScreen® reagents (Glutathione-coated Acceptor beads and streptavidin-coated Donor beads) were obtained from PerkinElmer.
The reaction was performed using white 384-well Optiplates (PerkinElmer, Whalham, Mass., USA) in 20 μl (total reaction volume) in a reaction buffer containing PBS, pH 7.4, 5 mM MgCl2 and 0.02% CHAPS. […] 10 μl of a mix solution containing 20 μg/ml Glutathione-coated Acceptor beads and 20 μg/ml streptavidin-coated Donor beads was then added to the wells and incubation was further proceeded for 40 min or overnight in the dark and at room temperature. Light signal was detected with the EnVision® multilabel plate reader (PerkinElmer). All experiments involving AlphaScreen® beads were performed under subdued lighting.

[2] = tested on: WT ErbB2-transfected cells; assay: MTT cell proliferation, WT ErbB2-transfected HBMEC; assay type: cell-based; conditions: day 3
Protocol: (§2) The WT, V777L or V842I ErbB2-transfected cells were treated with 5 or 10 μM of ZU and cell proliferation was determined each day during 3 days using an MTT assay. Non transfected cells were included as a negative control.
(§3) The WT, V777L or V842I ErbB2-transfected cells were treated with 5 or 10 μM of EB1 and cell proliferation was determined each day during 3 days using an MTT assay. Non transfected cells were included as a negative control.

SKBR3 [3] = assay: Soft agar colony formation, SKBR3; assay type: cell-based, human; conditions: 5 or 10 μM, 6 weeks
Protocol: A bottom layer of 0.8% agarose in DMEM supplemented with 20% SVF and penicillin/streptomycin was added to 24 well plates before seeding 25.10^3 SKBR3 or BT474 cells/well in a 0.6% agarose top layer. Cells were left untreated or treated with 5 or 10 μM ZU or EB1 or 5 μM AG1478 (a non-specific ErbB2 kinase inhibitor) as a positive control. Treatments were renewed 3 times a week. After 6 weeks, the number of colonies and their size were quantified using image J software. The colony formation is illustrated for each condition. Data are presented as mean±SEM.

HBMEC = assay: MTT cell proliferation, HBMEC control cells; assay type: cell-based, human
Protocol: (§4) We then analyzed the ability of ZU and EB1 and their derivatives to decrease the ErbB2-dependent cell proliferation.
(§5) SKBR3, BT474, MCF-7, MDA-MB-231 and HBMEC cells were treated with the compounds as indicated, and cell proliferation was determined each day during 3 days using an MTT assay. Non treated cells were included as a negative control.
as §2, §3

WT ErbB2 = biological target: T3, WT ErbB2 (Homo sapiens, UniProt P04626); assay: Western blot pY1248, WT ErbB2 in transfected HBMECs; assay type: cell-based; conditions: 0, 5, 10 or 20 μM, 48 h
T3 construct: expressed in transfected cells; host or cells: HBMEC
Protocol: HBMECs cells were transfected with plasmids encoding WT, ΔEBM (a form of ErbB2 carrying mutations in the juxtamembrane domain and unable to bind to the Ezrin FERM domain), V659E or p95 ErbB2 and treated with 0, 5, 10 or 20 μM ZU for 24 h. ErbB2 activation was then analyzed by western blot analysis using a phospho-ErbB2-specific antibody (pY1248) and a tubulin antibody as a loading control. Histograms show optical density quantification.
as §1

[4] = tested on: V777L ErbB2-transfected cells; assay: MTT cell proliferation, V777L ErbB2-transfected HBMEC; assay type: cell-based; conditions: day 3
Protocol: as §2, §3

ErbB2 = ErbB2 (Homo sapiens, UniProt P04626); assay: ErbB2 activation in N87 cells, dot blot (4G10); assay type: cell-based; set-up: endogenous in cells; host or cells: N87
Protocol: The phosphotyrosine content in the ErbB2-overexpressing gastric cancer cell line N87 was analyzed by dot blot using an anti-phosphotyrosine antibody (clone 4G10). As in these cells, ErbB2 is the main phosphorylated protein, decreased in total phosphotyrosine content mainly reflected inhibition of ErbB2 activity. As a control, the non-specific ErbB2 kinase inhibitor AG1478 was used. Quantifications show the result of two independent experiments.

[5] = tested on: V842I ErbB2-transfected cells; assay: MTT cell proliferation, V842I ErbB2-transfected HBMEC; assay type: cell-based; conditions: day 3
Protocol: as §2, §3

MCF7 = assay: MTT cell proliferation, MCF7; assay type: cell-based; conditions: 10 μM
Protocol: as §4, §5

BT474 = assay: MTT cell proliferation, BT474; assay type: cell-based, human
Protocol: as §4, §5
(§6) A solution of ZU in cis conformation was mixed to a solution of ZU in trans conformation (1:1) to obtain ZU in a 50/50 cis/trans conformation and their respective effects on ErbB2 activation and ErbB2-dependent cell proliferation were analyzed as previously by dot blot analysis using an anti-phosphotyrosine antibody (clone 4G10) and by MTT assays in the ErbB2-overexpressing breast cancer cell line SKBR3, BT474, or HBMEC as a control.

SKBR3 [6] = assay: MTT cell proliferation, SKBR3; assay type: cell-based, human
Protocol: as §4, §5, §6

O=C1c2ccccc2[Se](=O)N1c1ccccc1 (stereo not shown) [EB1, Ebselen oxide]
ErbB2 V777L activation (in words) (V777L ErbB2): potently decrease | inhibition of FERM/ErbB2 interaction [1]: 43% | decrease of the proliferation of WT transfected HBMEC ([2]; 5 μM): 60% | decrease of the proliferation of WT transfected HBMEC ([2]; 10 μM): 95% | anchorage-independent growth of SKBR3 (in words) (SKBR3 [3]): inhibited the anchorage-independent growth | effect on HBMEC proliferation (in words) (HBMEC; 10 μM): without any effect | effect on proliferation of non-transfected HBMECs cells (in words) (HBMEC; 10 μM, day 3): no effect | EC50 (HBMEC; Homo sapiens, 72 h, read-out: Cell proliferation at d 3 HBMEC EC50, μM): 99.2 µM | Cell proliferation at d 3 HBMEC Max inhibition, % (HBMEC; day 3): 94.4% | ErbB2 WT activation (in words) (WT ErbB2): potently decrease | decrease of the proliferation of V777L transfected HBMEC ([4]; 5 μM): 70% | decrease of the proliferation of V777L transfected HBMEC ([4]; 10 μM): 85% | ErbB2 activation in N87 cell line (in words) (ErbB2): potently decrease ErbB2 activation | decrease of the proliferation of V842I transfected HBMEC ([5]; 5 μM): 55% | decrease of the proliferation of V842I transfected HBMEC ([5]; 10 μM): 90% | effect on MCF7 proliferation (in words) (MCF7): without any effect | IC50 (BT474; Homo sapiens, BT-474): 5.5 µM | EC50 (BT474; Homo sapiens, BT-474, 72 h, day 3, read-out: Cell proliferation at d 3 BT474 EC50): 5.5 µM | Cell proliferation at d 3 BT474 Max inhibition, % (BT474; day 3): 100% | IC50 (SKBR3 [6]; Homo sapiens, SK-BR-3): 7.5 µM | EC50 (SKBR3 [6]; Homo sapiens, SK-BR-3, 72 h, day 3, read-out: Cell proliferation at d 3 SKBR3 EC50): 7.4 µM | Cell proliferation at d 3 SKBR3 Max inhibition, % (SKBR3 [6]; day 3): 96.7%
